Test results from ChEMBL document CHEMBL1121588, “Studies on anticoccidial agents. 13. Synthesis and anticoccidial activity of nitropyridine-2- and -3-sulfonamides and derivatives” (1980).

Columns and labels:
Type in all cases: functional
Eimeria tenella [1] = experiment: Anticoccidial activity against Eimeria tenella using amprolium resistant strain at a concentration of 0.015% drug in feed
Eimeria tenella [2] = experiment: Anticoccidial activity against Eimeria tenella using amprolium resistant strain at a concentration of 0.00175% drug in feed
Eimeria tenella [3] = experiment: Anticoccidial activity against Eimeria tenella using amprolium resistant strain at a concentration of 0.0035% drug in feed
Eimeria tenella [4] = experiment: Anticoccidial activity against Eimeria tenella using amprolium resistant strain at a concentration of 0.007% drug in feed

SMILES | Activity (Eimeria tenella [1]) | other results
CCCCN(CC)S(=O)(=O)c1cncc([N+](=O)[O-])c1 | 175 | –
CN(C)S(=O)(=O)c1cncc([N+](=O)[O-])c1 | 175 | –
CCOCCN(CC)S(=O)(=O)c1cncc([N+](=O)[O-])c1 | 178 | –
CNS(=O)(=O)c1cncc([N+](=O)[O-])c1 | 195 | –
O=[N+]([O-])c1cncc(S(=O)(=O)NCc2ccccc2)c1 | 168 | –
CC(C)(C)C(=O)NS(=O)(=O)c1cncc([N+](=O)[O-])c1 | 122 | –
CCCCCCCC(=O)NS(=O)(=O)c1cncc([N+](=O)[O-])c1 | 187 | –
NS(=O)(=O)c1ccc[n+]([O-])c1 | 160 | –
O=[N+]([O-])c1cncc(S(=O)(=O)Nc2ccccc2)c1 | 86 | –
NS(=O)(=O)c1ncccc1[N+](=O)[O-] | 55 | –
NS(=O)(=O)c1ccc([N+](=O)[O-])nc1 | 120 | –
NS(=O)(=O)c1cccnc1[N+](=O)[O-] | 144 | –
NS(=O)(=O)c1cnccc1[N+](=O)[O-] | 144 | –
CCOCCNS(=O)(=O)c1cncc([N+](=O)[O-])c1 | 192 | –
NS(=O)(=O)c1cncc([N+](=O)[O-])c1 | 194 | Activity (Eimeria tenella [2]): 158; Activity (Eimeria tenella [3]): 194; Activity (Eimeria tenella [4]): 195
CCNS(=O)(=O)c1cncc([N+](=O)[O-])c1 | 190 | –
CCCCCCCCNS(=O)(=O)c1cncc([N+](=O)[O-])c1 | 126 | –
NC(=O)c1cncc([N+](=O)[O-])c1 | 198 | Activity (Eimeria tenella [3]): 158; Activity (Eimeria tenella [4]): 186
CC(=O)NS(=O)(=O)c1cncc([N+](=O)[O-])c1 | 186 | –
NS(=O)(=O)c1cc[n+]([O-])cc1 | 120 | –
NS(=O)(=O)c1cccc[n+]1[O-] | 183 | –
O=[N+]([O-])c1cncc(S(=O)(=O)NCCO)c1 | 120 | –
NS(=O)(=O)c1ccc([N+](=O)[O-])cn1 | 32 | –
NS(=O)(=O)c1cccc([N+](=O)[O-])n1 | 120 | –
NS(=O)(=O)c1cc([N+](=O)[O-])ccn1 | 107 | –
CC(C)OCCCNS(=O)(=O)c1cncc([N+](=O)[O-])c1 | 193 | –
CCCc1ncc(C[n+]2ccccc2C)c(N)n1.[Cl-] | 95 | –
